Consider twelve molecules from US5597832A (Abbott Laboratories, priority 1994, dated 1997).

By Ki is commonly meant a dissociation constant, usually derived from enzyme kinetics or from competition with a known ligand. For orientation: EC50 means the concentration giving half of the maximal effect. Low readings indicate an effect from little substance, high ones a need for much substance.

One experiment concerns dopamine receptors. To be noted: literature; cited from earlier work.
Another experiment concerns schizophrenia. The note with it: literature, cited from earlier work; for antipsychotic effects: low doses.
For experiment [1], the system named is striatal dopamine receptors. As to the kind of experiment: animal or person. Type of experiment: in vivo. To be noted: Rattus norvegicus, sc, read-out: EC50, rotation behavior.
Experiment [2] concerns the target T1, dopamine D-1 receptor (Rattus norvegicus, UniProt P18901). The note with it: read-out: D-1 Ki.
The next experiment addresses T2, dopamine D-2 receptor (Rattus norvegicus, UniProt P61169).
T2 construct: Homogenized rat caudate was the source of the D-2 receptors; from tissue; host or cells: rat caudate homogenate
Briefly: D-2 receptor competitive binding, [3H]-spiroperidol, homogenized rat caudate. To be noted: read-out: D-2 Ki.

The next experiment deals with D-1 receptor. As to the kind of experiment: Adenylate cyclase assay (agonist activity, cAMP). Type of experiment: biochemical, goldfish retina or rat striatum.
For another experiment, the system named is rats. To be noted: literature; cited from earlier work.
For the next experiment, the system named is Parkinson's disease. The note with it: alone, some patients; cited from earlier work.
Experiment [3] concerns the target T1, dopamine D-1 receptor. Briefly: biochemical.
[4] abbreviates: goldfish retina or rat striatum homogenate.

Counter-ions that a name gives are not always drawn. Like-named read-outs stand apart in the source and are kept apart here. Bounds are passed on as bounds.

T1 sequence (P18901 whole entry): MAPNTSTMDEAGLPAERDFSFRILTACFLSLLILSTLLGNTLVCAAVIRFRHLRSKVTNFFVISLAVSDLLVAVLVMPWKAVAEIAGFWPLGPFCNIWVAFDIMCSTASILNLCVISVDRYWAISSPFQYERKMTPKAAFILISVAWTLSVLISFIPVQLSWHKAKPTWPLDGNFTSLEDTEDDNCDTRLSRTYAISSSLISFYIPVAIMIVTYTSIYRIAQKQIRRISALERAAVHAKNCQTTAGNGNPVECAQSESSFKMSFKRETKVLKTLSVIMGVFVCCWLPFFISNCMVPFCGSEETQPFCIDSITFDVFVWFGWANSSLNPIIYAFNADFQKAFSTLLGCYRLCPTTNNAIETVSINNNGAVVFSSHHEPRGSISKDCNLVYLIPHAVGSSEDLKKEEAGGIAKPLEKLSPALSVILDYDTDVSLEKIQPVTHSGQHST
T2 sequence (P61169 whole entry): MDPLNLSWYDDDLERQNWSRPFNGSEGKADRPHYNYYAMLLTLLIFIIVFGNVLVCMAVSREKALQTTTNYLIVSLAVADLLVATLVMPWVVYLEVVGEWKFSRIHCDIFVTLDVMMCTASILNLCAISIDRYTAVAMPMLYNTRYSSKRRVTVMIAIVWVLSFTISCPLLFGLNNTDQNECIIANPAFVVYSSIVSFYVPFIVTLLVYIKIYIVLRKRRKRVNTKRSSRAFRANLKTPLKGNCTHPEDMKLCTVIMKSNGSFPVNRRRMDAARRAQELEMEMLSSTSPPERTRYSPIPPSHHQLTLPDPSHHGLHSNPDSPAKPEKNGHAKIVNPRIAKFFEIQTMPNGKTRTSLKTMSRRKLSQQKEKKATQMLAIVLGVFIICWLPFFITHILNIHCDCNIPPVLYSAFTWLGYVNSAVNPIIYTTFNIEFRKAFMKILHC

As to `Oc1cc2c(cc1O)C1c3ccccc3CNC1CC2` (centres unmarked) [dihydrexidine], in the experiment on dopamine receptors, the “dopamine agonist activity” value was “active as a dopamine agonist”.
Regarding `CN1CCc2cccc3c2[C@H]1Cc1ccc(O)c(O)c1-3` [apomorphine], the “antipsychotic effects” value with schizophrenia is “produce antipsychotic effects”.
Consider `Cc1nc2c(o1)[C@@H]1c3cc(O)c(O)cc3CC[C@H]1NC2` (relative stereo) [Example 51, trans-2-Methyl-4,5,5a,6,7,11b-hexahydro-1-oxa-3,5-diaza-cyclopent-2-ena[c]phenanthrene-9,10-diol], for which the ED50 in [1] was found to be 0.33 µmol/kg. Further, the inhibitory constant (Ki) on dopamine D-1 receptor [2] worked out at 11 nM. In addition, the inhibition constant (Ki) on dopamine D-2 receptor (rat caudate, [3H]-spiroperidol) amounted to 382 nM. On D-1 receptor, it took 65 nM to reach a half-maximal effect (EC50) and the “Intrinsic Activity (%)” value was 100%.
The corresponding values for `CCc1cc2c(o1)CN[C@@H]1CCc3cc(O)c(O)cc3[C@@H]21` (relative stereo) [Example 40, trans-2-Ethyl-4,5,5a,6,7,11b-hexahydro-3-oxa-5-aza-cyclopent-1-ena[c]phenanthrene-9,10-diol hydrochloride] are 0.12 µmol/kg, 15 nM, 480 nM, 37 nM and 70%.
Consider `Oc1cc2c(cc1O)C1c3cc(C45CC6CC(CC(C6)C4)C5)sc3CNC1CC2` (centres unmarked) [Example 47, 2-(Adamantyl)-4,5,5a,6,7,11b-hexahydro-3-thia-5-aza-cyclopent-1-ena[c]phenanthrene-9,10-diol hydrobromide], for which the Ki on dopamine D-1 receptor [2] (rat caudate, [125I]SCH-23982) was more than 10000 nM; at dopamine D-2 receptor (rat caudate, [3H]-spiroperidol), more than 5000 nM.
Take `Cc1sc2c(c1C)CN[C@H]1CCc3cc(O)c(O)cc3[C@H]21` (relative stereo) [Example 21, trans-2,3-dimethyl-4,5,5a,6,7,11b-hexahydro-1-thia-5-aza-cyclopent-2-ena[c]phenanthrene-9,10-diol hydrobromide]: the inhibition constant (Ki) on dopamine D-1 receptor [2] was 15 nM; at dopamine D-2 receptor it was 66 nM. The “Intrinsic Activity (%)” value with D-1 receptor amounted to 95%. Moreover, at D-1 receptor (setting [4]), it took 182 nM to reach a half-maximal effect (EC50).
Take `Oc1cc2c(cc1O)C(c1ccccc1)CNCC2` (centres unmarked) [SKF 38393]: the “effect on side-effects of haloperidol” value with schizophrenia (used in conjunction with haloperidol) is recorded as “ameliorate the undesired side-effects of the haloperidol”. Moreover, in the experiment on rats, the “food intake” value is listed as “decrease food intake by rats”.
For the molecule `CC(C)C[C@H]1C(=O)N2CCC[C@H]2[C@]2(O)O[C@](NC(=O)[C@@H]3C=C4c5cccc6[nH]c(Br)c(c56)C[C@H]4N(C)C3)(C(C)C)C(=O)N12` [bromocriptine], the “relief of Parkinson's disease symptoms” value with Parkinson's disease is listed as “relieve Parkinson's disease symptoms in some patients”. In addition, the “antipsychotic effects” value in the experiment with schizophrenia is “produce antipsychotic effects”.
Regarding `CC(C)c1nc2c(o1)[C@@H]1c3cc(O)c(O)cc3CC[C@H]1NC2` (relative stereo) [Example 50, trans-2-isopropyl-4,5,5a,6,7,11b-hexahydro-1-oxa-3,5-diaza-cyclopent-2-ena[c]phenanthrene-9,10-diol dihydrobromide], the ED50 in experiment [1] was more than 1 µmol/kg. Further, on dopamine D-1 receptor [2], the inhibitory constant (Ki) stood at 12 nM. For the same molecule, the inhibition constant Ki at dopamine D-2 receptor (rat caudate, [3H]-spiroperidol) was determined as 365 nM. Besides, on D-1 receptor, the EC50 was determined as 81 nM and the “Intrinsic Activity (%)” value is 108%.
With `CCCc1nc2c(s1)CN[C@@H]1CCc3cc(O)c(O)cc3[C@@H]21` (relative stereo) [Example 54, trans-2-propyl-4,5,5a,6,7,11b-hexahydro-1,5-diaza-3-thia-cyclopent-1-ena[c]phenanthrene-9,10-diol dihydrobromide], in [1], the ED50 came out at 0.21 µmol/kg. Besides, the Ki is more than 5000 nM on dopamine D-2 receptor (rat caudate, [3H]-spiroperidol) and 220 nM on dopamine D-1 receptor [3]. For the same molecule, in the experiment on D-1 receptor, the “Intrinsic Activity (%)” value was found to be 67%. Also, at D-1 receptor (setting [4]), a half-maximal response (EC50) required 580 nM.
For `Oc1ccc2c(c1O)CCC1NCc3ccccc3C21` (centres unmarked), the “dopamine agonist activity” value in the experiment with dopamine receptors was “inactive at dopamine receptors”.
As to `CC(C)CCc1cc2c(s1)[C@@H]1c3cc(O)c(O)cc3CC[C@H]1NC2` (relative stereo) [Example 30, trans-2-(3-Methylbutyl)-4,5,5a,6,7,11b-hexahydro-1-thia-5-aza-cyclopent-2-ena[c]phenanthrene-9,10-diol hydrobromide], the ED50 in experiment [1] is more than 1 µmol/kg. Further, the inhibitory constant (Ki) is 560 nM on dopamine D-2 receptor (rat caudate, [3H]-spiroperidol) and 62 nM at dopamine D-1 receptor [3]. For the same molecule, the “Intrinsic Activity (%)” value with D-1 receptor is 70%. On D-1 receptor (setting [4]), this molecule registered an EC50 of 105 nM.
